Test results from patent US20110053860A1, “COX-2 function and wound healing” (priority 2001, published 2011).

Legend:
[1] = system: rat closed femur fracture model; assay: Torsional mechanical testing of fractured femurs; type: in vivo, male Sprague-Dawley rats; conditions: for normalized shear stress / normalized torsional rigidity / normalized peak torque / normalized maximum shear stress: percentage of contralateral unfractured femur; for normalized shear stress: no drug 36; for Shear Modulus, mean / Peak Torque (Tmax), mean: fractured femur; for Peak Torque (Tmax), mean: not normalized; for Mal-Union (Stage III), frequency / Non-Union (Stage I/II), frequency / Union (Stage IV), frequency: mechanically tested fractured femurs at 8 weeks post-fracture; for normalized maximum shear stress: no drug 48; for effect on fracture healing at the dose and treatment regime used: daily gavage, indomethacin 1 mg/kg, celecoxib 4 mg/kg, rofecoxib 3 mg/kg
Experimental: (§1) A total of 253 male Sprague-Dawley rats (584.+−0.62 g) were fed a standard diet and kept caged separately in a constant temperature and humidity environment. All rats were 6-9 months old at the beginning of the experiment. Drugs were administered daily by gavage beginning two days prior to fracture. Animals were randomly selected for each treatment group. […] No drug (control) rats were not initially gavaged but later rats were gavaged with water and no difference was noted between the no drug rats that had been gavaged and those that had not. No statistically significant differences were found in animal weight changes during the experiments.
(§2) The rats were anesthetized by intraperitoneal injection of ketamine (40 mg/kg) and xylazine (5 mg/kg). Under aseptic conditions, a medial parapatellar incision (0.4-0.5 cm) was made in the right hindlimb and the patella was dislocated laterally. The medullary canal was entered through the intercondylar notch and reamed with an 18-gauge needle. A 1.1 mm stainless steel pin (Small Parts Inc., Miami Lakes, Fla.) was then inserted into the canal and secured in the proximal part of the greater trochanter by tamping. The distal portion of the pin was then cut flush with the femoral condyles and the patella dislocation was reduced. The soft tissue and skin were closed with 4-0 vicryl sutures. After closing, the diaphysis of the pinned femur was fractured by means of a three-point bending device as described by Bonnarens and Einhorn (Bonnarens and Einhorn 1984).
Animals within each treatment group were sacrificed at 4, 6, and 8 weeks post-fracture by CO2 asphyxiation. Animals with oblique, comminuted, or infected fractures were not used for mechanical testing. Both femora were removed and cleaned of all soft tissue leaving the fracture callus undisturbed and then immediately processed for mechanical testing. The samples were wrapped in saline soaked gauze to prevent dehydration between steps. Measurements of the femora were taken using digital calipers to determine femur length and external callus dimensions. The intramedullary pin was removed from the fractured femur and a 1 mm-diameter stainless steel pin (˜0.8 cm length) was inserted at the proximal and distal end perpendicular to the long axis of the bone to prevent slipping in the potting material. The intact femur was also pinned as described above. The femoral ends were potted in 1-inch hexnuts using a low melt temperature metal (Wood's metal, Alfa Aesar, Ward Mill, Mass.). Once potted, the gage length (L) of each femur was measured. Torsional testing was conducted using a servohydraulic testing machine (MTS, Eden, Praire, Minn.) with a 20 Nm reaction torque cell (Interface, Scottsdale, Ariz.). The testing was carried out to failure at a rate of 2°/sec and a data recording rate of 20 Hz. Both the fractured and intact femora were tested in internal rotation in proper anatomic orientation. The peak torque and angle at failure were calculated from the load-deformation curves. Internal fracture callus dimensions were measured after mechanical testing. From the callus dimensions, the polar moment of inertia (J) was calculated based upon a hollow ellipse model (Bell et al. 1941; Engesaeter et al. 1978). The equations used to derive torsional rigidity, shear stress, shear modulus, and J were as follows (Popov 1968): (1) Torsional Rigidity: (Tmax·L)/φ where Tmax is the peak torque value in Nmm, L is the gage length in mm, and φ is the angle at failure in radians. (2) Shear Stress: (Tmax·Rmax)/J where Rmax is the largest radial dimension of the fracture callus in mm (ao) and J is the polar moment of inertia. […]

[2] = system: rat closed femur fracture model; assay: Radiographic analysis of femur fracture healing in NSAID treated rats; type: in vivo, male Sprague-Dawley rats; conditions: for average radiograph score (union 1 point, mal-union 0.5 points, non-union 0 points): 8-week post-fracture radiographs, 7 blinded observers, control rats 0.71
Experimental: A total of 253 male Sprague-Dawley rats (584.+−0.62 g) were fed a standard diet and kept caged separately in a constant temperature and humidity environment. All rats were 6-9 months old at the beginning of the experiment. Drugs were administered daily by gavage beginning two days prior to fracture. Animals were randomly selected for each treatment group.
as §2
Radiographs were made post-fracture to confirm the position and quality of each fracture and at sacrifice to determine the degree of healing. In addition several rats were selected randomly to produce serial radiographs (at least 2 rats per treatment group). Radiographs were made of these rats weekly under anesthesia until the experimental endpoint (8 weeks). Radiographs of mice were also made under anesthesia. All radiographs were made using a 43805N Faxitron (Hewlett-Packard, McMinnville, Oreg.) and Kodak MinR-2000 mammography film.
Radiographs were made immediately following fracture production and then every week till the end point of the experiments (8 weeks post-fracture).
In addition to the serial radiographs made for certain rats, all animals in this study were examined radiographically immediately post-fracture and when euthanized. A random, blinded sample of the 8-week post-fracture radiographs were independently examined by 7 observers and scored as a union (1 point), mal-union (0.5 points), or non-union (0 points).

[3] = male rats, single drug dose; cited from earlier work
[4] = system: rat closed femur fracture model; assay: Histology of fracture callus; type: in vivo, male Sprague-Dawley rats; conditions: for histology of the healing femur fractures compared to untreated control rat: 2 weeks post-fracture; for cartilage in the fracture callus: 3 and 4 weeks post-fracture; for healing of fractured femurs by histology: 6 and 8 weeks post-fracture
Experimental: as §1, §2
Rats were sacrificed at 2, 3, 4, 6, and 8 weeks post-fracture by CO2 asphyxiation. Both femora were resected and the stainless steel pin was removed from the medullary canal. The harvested femora were fixed in 10% buffered formalin and embedded in polymethylmethacrylate following standard histological techniques for calcified tissue. The samples were sectioned sagitally through the fracture callus using an Isomet diamond saw (Buehler Ltd., Lake Bluff, Ill.), mounted on plexiglass slides, and polished to a thickness of 100 μ.m. The slides were then stained with van Gieson's picrofuchsin and Stevenel's blue in order to identify new bone growth and cartilage formation (Maniatopoulos et al. 1986). Mice femora were fixed, decalcified, paraffin embedded, sectioned, and stained with Masson's trichrome stain. The samples were viewed and photomicrographs were taken using an Olympus BH2-RFCA microscope or an Olympus SZ40 microscope.

[5] = system: rat closed femur fracture model; conditions: in vivo
Source text: Experimental treatment group values were compared to the no drug values using a χ^2 analysis. Significant differences are noted with an asterisk (P<0.01).
Pin slippage is dislodgement of the intramedullary stainless steel rod used to stabilize the fracture and permit the rat to weight-bear on the fractured femur. Once fracture stability was lost, the rat was euthanized since the rat could no longer weight-bear on the femur and since the callus would be re-injured and thus alter healing. […] Animals with these complications were excluded.

[6] = humans, depending upon drug dose; cited from earlier work
COX-2 = COX-2 (Homo sapiens, UniProt P35354); conditions: cited from earlier work
Sequence of COX-2 (P35354 18-604): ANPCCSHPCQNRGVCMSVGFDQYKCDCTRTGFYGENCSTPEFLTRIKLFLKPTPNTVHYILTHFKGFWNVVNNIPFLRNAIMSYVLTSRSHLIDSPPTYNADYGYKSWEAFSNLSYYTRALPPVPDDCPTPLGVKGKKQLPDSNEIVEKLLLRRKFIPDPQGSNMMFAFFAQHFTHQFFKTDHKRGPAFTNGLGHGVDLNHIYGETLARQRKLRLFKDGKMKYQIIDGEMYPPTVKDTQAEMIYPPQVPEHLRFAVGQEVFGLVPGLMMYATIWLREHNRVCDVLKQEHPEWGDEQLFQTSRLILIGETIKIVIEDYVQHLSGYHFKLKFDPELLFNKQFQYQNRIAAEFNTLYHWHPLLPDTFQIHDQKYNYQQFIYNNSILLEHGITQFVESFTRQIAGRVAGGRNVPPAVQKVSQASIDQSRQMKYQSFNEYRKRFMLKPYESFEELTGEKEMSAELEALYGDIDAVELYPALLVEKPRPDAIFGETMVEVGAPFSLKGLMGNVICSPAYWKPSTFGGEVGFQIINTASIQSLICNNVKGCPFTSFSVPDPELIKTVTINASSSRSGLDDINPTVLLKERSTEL

[7] = 6 weeks post-fracture, no drug 89
[8] = 8 weeks post-fracture, no drug 88
[9] = 8 weeks post-fracture, no drug 101

| Structure (SMILES) | normalized shear stress ([1]; 6 weeks post-fracture) [%] | normalized torsional rigidity [1, 7] [%] | Shear Modulus, mean ([1]; 4 wks) [GPa] | Peak Torque (Tmax), mean ([1]; 4 wks) [Nmm] | Shear Modulus, mean ([1]; 6 wks) [GPa] | Peak Torque (Tmax), mean ([1]; 6 wks) [Nmm] | Shear Modulus, mean ([1]; 8 wks) [GPa] | Peak Torque (Tmax), mean ([1]; 8 wks) [Nmm] | Mal-Union (Stage III), frequency [1] | Non-Union (Stage I/II), frequency [1] | Union (Stage IV), frequency [1] | average radiograph score (union 1 point, mal-union 0.5 points, non-union 0 points) [2] | estimated plasma half-life [3] | normalized maximum shear stress ([1]; 8 weeks post-fracture) | normalized torsional rigidity [1, 8] | normalized peak torque [1, 9] | effect on fracture healing at the dose and treatment regime used [1] | histology of the healing femur fractures compared to untreated control rat [4] | cartilage in the fracture callus [4] | healing of fractured femurs by histology [4] | also measured |
| --- | --- | --- | --- | --- | --- | --- | --- | --- | --- | --- | --- | --- | --- | --- | --- | --- | --- | --- | --- | --- | --- |
| Cc1ccc(-c2cc(C(F)(F)F)nn2-c2ccc(S(N)(=O)=O)cc2)cc1 [Celecoxib, celecoxib] | 22 | 50 | 0.3 | 302 | 0.9 | 567 | 1.7 | 620 | 3 | 3 | 0 | 0.49 | approximately 4 hours | – | – | – | – | – | – | – | rats tested whose fractured femurs healed as mal-unions rather than non-unions ([1]; rat, in vivo): approximately 50% |
| COc1ccc2c(c1)c(CC(=O)O)c(C)n2C(=O)c1ccc(Cl)cc1 [Indomethacin, indomethacin] | 15 | 34 | 0.3 | 417 | 0.4 | 357 | 1.8 | 469 | 1 | 1 | 6 | 0.54 | – | not significantly different | not significantly different | not significantly different | delays, but does not prevent fracture healing | gross abnormalities | presence of cartilage | appeared to be healing | normalized peak torque ([1]; 6 weeks post-fracture, no drug 77): 46%; bridging of the fracture gap (time post fracture) ([2]; radiography, untreated rats approximately 4-5 weeks): 5-6 weeks |
| CS(=O)(=O)c1ccc(C2=C(c3ccccc3)C(=O)OC2)cc1 [Rofecoxib, rofecoxib] | – | – | 0.2 | 250 | 0.3 | 383 | 0.5 | 338 | 1 | 4 | 0 | 0.32 | ~5 h | 18% | 31% | 50% | stops fracture healing | gross abnormalities | little or no cartilage was evident | no further healing was evident | mechanical properties of the fractured femurs compared to no drug rats ([1]; rofecoxib: 8 weeks post-fracture, all values measured or derived): significantly less; infection rate as compared to the no drug rats [5]: statistically significant higher; pin slippage, rats having to be euthanized prior to the endpoint ([5]; male, Sprague-Dawley): ≤ 30%; plasma half-life [6]: 10 to 17 h; bone resorption at the distal ends of the fracture bones ([4]; rat, in vivo): massive bone resorption event; selectivity for COX-2 relative to COX-1 (COX-2): ~35 fold; formation of an X-ray dense hard callus ([2]; 2 and 4 week post-fracture radiographs): did not prevent; original fracture on radiograph ([2]; after 8 weeks): still plainly evident |
